Among the test systems are HOP-62 NSCLC; A549 NSCLC; COLO 205 colon; SK-MEL-2 melanoma; SF-295 CNS; SN12C renal; SNB-19 CNS; HCT-15 colon; HCT-116 colon; NCI-H522 lung.
Holding throughout (test): NCI anticancer screen, dose series, 48 h

Values joined by “and” are separate entries in the source; they are usually repeats but may differ in a detail not shown here. Identical values can stand only once.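 Cultured in 96-well plates, cells were exposed to test compound for 48 hours across five concentrations. GI50 is the concentration that inhibits growth by half. TGI marks complete inhibition of growth.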

Turning to `O=[N+]([O-])/C=C/c1cn(CCCCCCCCn2cc(/C=C/[N+](=O)[O-])c3ccccc32)c2ccccc12`, the TGI in the assay with HOP-62 NSCLC, in the assay on A549 NSCLC, in the assay with COLO 205 colon, in the assay on SK-MEL-2 melanoma, in the assay with SF-295 CNS and with SN12C renal was over 10 µM each time. The TGI with SNB-19 CNS was over 10 µM; in the assay on HCT-15 colon, over 10 µM; in the assay on HCT-116 colon, 0.396 µM; in the assay with NCI-H522 lung, over 10 µM.

Consider `NCC[PH+](c1ccccc1)c1ccccc1.NCC[PH+](c1ccccc1)c1ccccc1.[Cl-].[Pt+4]`, for which the GI50 in the assay on HOP-62 NSCLC, in the assay on A549 NSCLC, in the assay on COLO 205 colon, in the assay on SK-MEL-2 melanoma, in the assay with SF-295 CNS and with SN12C renal was over 100 µM throughout. Further, the GI50 is 46.1 µM in the assay on SNB-19 CNS, over 100 µM in the assay on HCT-15 colon, 46.1 µM in the assay on HCT-116 colon and over 87.1 µM with NCI-H522 lung. The TGI in the assay on HOP-62 NSCLC, in the assay on A549 NSCLC, in the assay on COLO 205 colon, with SK-MEL-2 melanoma, with SF-295 CNS and in the assay on SN12C renal was over 100 µM in each case. Besides, the TGI with SNB-19 CNS, with HCT-15 colon, with HCT-116 colon and with NCI-H522 lung was over 100 µM throughout.

For the compound `c1ccc2c(c1)n1nnnc1c1nnnn21`, the TGI with HOP-62 NSCLC, in the assay on A549 NSCLC, in the assay on COLO 205 colon, in the assay on SK-MEL-2 melanoma, in the assay with SF-295 CNS and with SN12C renal was over 100 µM in each case. Further, the TGI in the assay on SNB-19 CNS, in the assay with HCT-15 colon, with HCT-116 colon and with NCI-H522 lung was over 100 µM in each case.

In the case of `Cc1cc(N(CCC#N)CCC#N)ccc1/C=C1N=C(/C=C\c2ccccc2)N(c2ccc(C(=O)O)cc2)C\1=O`, the TGI in the assay with HOP-62 NSCLC, in the assay on A549 NSCLC, in the assay with COLO 205 colon, in the assay with SK-MEL-2 melanoma, in the assay on SF-295 CNS and with SN12C renal was over 100 µM each time. Further, the TGI in the assay on SNB-19 CNS, in the assay on HCT-15 colon, with HCT-116 colon and in the assay on NCI-H522 lung was over 100 µM in each case.

Turning to `CNc1ccc(CSc2ccc(C)cc2)cc1`, the GI50 is over 100 µM with HOP-62 NSCLC; 5.34 µM with A549 NSCLC; 15.7 µM with COLO 205 colon; 38.5 µM with SK-MEL-2 melanoma; 22.3 µM in the assay with SF-295 CNS; 3.62 µM in the assay with SN12C renal. For the same compound, the GI50 in the assay on SNB-19 CNS is 38.6 µM; in the assay on HCT-15 colon, 12.6 µM; with HCT-116 colon it was 32.9 µM; in the assay on NCI-H522 lung, 3.62 µM. In addition, the TGI in the assay on HOP-62 NSCLC was over 100 µM; in the assay on A549 NSCLC it was over 100 µM; with COLO 205 colon, 29.3 µM; in the assay on SK-MEL-2 melanoma, over 100 µM; with SF-295 CNS it was over 100 µM; in the assay with SN12C renal, 53.6 µM. The TGI in the assay with SNB-19 CNS is over 100 µM; with HCT-15 colon, 35.6 µM; in the assay with HCT-116 colon, over 100 µM; in the assay with NCI-H522 lung, 23.7 µM.

Regarding `Cc1cc(=O)[nH]c2c1C(=O)c1c(C)cc(=O)n(C)c1C2=O`, the TGI in the assay with HOP-62 NSCLC stood at 0.0999 µM; in the assay on A549 NSCLC, 0.399 µM; in the assay with COLO 205 colon, 0.037 µM; with SK-MEL-2 melanoma, 0.0592 µM; with SF-295 CNS, 0.31 µM; in the assay on SN12C renal, 0.195 µM. Also, the TGI in the assay on SNB-19 CNS was 0.0358 µM; in the assay on HCT-15 colon, 0.264 µM; in the assay on HCT-116 colon it was 0.253 µM; in the assay with NCI-H522 lung, 0.187 µM.

Take `CCCC/C=C1/CCC(CN(C)C)C1=O` (stereo not given): the TGI was determined as 35.2 µM with HOP-62 NSCLC; 16.5 µM in the assay on A549 NSCLC; 3.04 µM in the assay on COLO 205 colon; 10.1 µM in the assay with SK-MEL-2 melanoma; 13 µM in the assay on SF-295 CNS; 3.63 µM in the assay on SN12C renal. In addition, the TGI in the assay on SNB-19 CNS turned out to be 12.3 µM; with HCT-15 colon it was 1.08 µM; with HCT-116 colon it was 4.01 µM; in the assay on NCI-H522 lung, 1.39 µM.

Regarding `Cn1cc(C2=C(c3cccc([N+](=O)[O-])c3)C(=O)NC2=O)c2ccccc21`, the GI50 in the assay on HOP-62 NSCLC is 7.47 µM; in the assay on A549 NSCLC it was 8.52 µM; in the assay with COLO 205 colon, 8.32 µM; in the assay with SK-MEL-2 melanoma, 5.24 µM; with SF-295 CNS, 2.14 µM; in the assay with SN12C renal it was 9.61 µM. The GI50 in the assay with SNB-19 CNS is 19.6 µM; in the assay on HCT-15 colon it was 7.97 µM; with HCT-116 colon, 5.5 µM; in the assay on NCI-H522 lung, 7.66 µM. The TGI is over 25 µM with HOP-62 NSCLC; over 25 µM with A549 NSCLC; over 25 µM in the assay on COLO 205 colon; 17.2 µM in the assay on SK-MEL-2 melanoma; over 14 µM with SF-295 CNS; over 25 µM in the assay with SN12C renal. Further, the TGI in the assay with SNB-19 CNS was over 25 µM; with HCT-15 colon it was over 25 µM; in the assay with HCT-116 colon, over 25 µM; in the assay on NCI-H522 lung, over 22.5 µM.

Consider `C=C1CCC2C(C)(CO)C(O)CCC2(C)C1C/C=C1\C(=O)OCC1O` (stereo not given), for which the TGI in the assay on HOP-62 NSCLC turned out to be 54.4 µM; in the assay with A549 NSCLC, 80.9 µM; with COLO 205 colon it was 27.9 µM; in the assay on SK-MEL-2 melanoma it was 30.8 µM; in the assay with SF-295 CNS, 52.5 µM; with SN12C renal it was 35.8 µM. Besides, the TGI in the assay on SNB-19 CNS is over 100 µM; in the assay on HCT-15 colon, 39.5 µM; in the assay on HCT-116 colon, 28.9 µM; in the assay with NCI-H522 lung, 28.4 µM.

Turning to `COc1cc(-c2ccc[nH]2)[nH]c1/C=C1\N=C(C)C(C(=O)NC(C)C)=C1C`, the GI50 in the assay with HOP-62 NSCLC was 3.77 µM; with A549 NSCLC it was 2.94 µM; with COLO 205 colon, 3.25 µM; in the assay on SK-MEL-2 melanoma, 2.45 µM; in the assay on SF-295 CNS, 2.9 µM; with SN12C renal it was 10.7 µM. Further, the GI50 in the assay on SNB-19 CNS was 10.4 µM; in the assay with HCT-15 colon it was 2.08 µM; in the assay on HCT-116 colon, 1.52 µM; in the assay on NCI-H522 lung, 2.15 µM. Further, the TGI with HOP-62 NSCLC turned out to be 15.8 µM; in the assay on A549 NSCLC, 10.5 µM; in the assay on COLO 205 colon, 14.1 µM; in the assay with SK-MEL-2 melanoma it was 5.49 µM; with SF-295 CNS it was 11.4 µM; in the assay with SN12C renal, 24 µM. For the same compound, the TGI with SNB-19 CNS came to 23.8 µM; in the assay on HCT-15 colon, 13.5 µM; in the assay on HCT-116 colon, 4.25 µM; in the assay with NCI-H522 lung, 6.65 µM.

As to `CC(C)(C)c1cnc(CSc2cnc(NC(=O)C3CCNCC3)s2)o1`, the GI50 with HOP-62 NSCLC was 0.282 µM and 0.343 µM; in the assay with A549 NSCLC it was 0.256 µM and 0.23 µM; in the assay with COLO 205 colon, 0.0687 µM and 0.0561 µM; with SK-MEL-2 melanoma it was 0.124 µM and 0.197 µM; in the assay on SF-295 CNS, 0.185 µM and 0.602 µM; in the assay on SN12C renal, 0.262 µM and 0.215 µM. Further, the GI50 was 0.244 µM and 0.259 µM with SNB-19 CNS; 4.76 µM and > 6.31 µM with HCT-15 colon; 0.102 µM and 0.0797 µM in the assay with HCT-116 colon; 0.189 µM and 0.175 µM with NCI-H522 lung. Further, the TGI is 7.06 µM and > 8.87 µM in the assay with HOP-62 NSCLC; over 10 µM in the assay with A549 NSCLC; 0.207 µM and 0.24 µM in the assay with COLO 205 colon; 0.284 µM and 0.518 µM in the assay on SK-MEL-2 melanoma; over 10 µM in the assay with SF-295 CNS; over 63.3 µM in the assay with SN12C renal. The TGI in the assay with SNB-19 CNS was over 100 µM; in the assay on HCT-15 colon it was over 100 µM; in the assay with HCT-116 colon it was over 100 µM; with NCI-H522 lung, 0.494 µM and 0.565 µM.

For the compound `Nc1cccc(C(=O)/C=C/c2ccccc2O)c1`, the TGI in the assay with HOP-62 NSCLC, in the assay on A549 NSCLC, with COLO 205 colon, with SK-MEL-2 melanoma, in the assay with SF-295 CNS and in the assay with SN12C renal was over 100 µM in each case. Further, the TGI in the assay on SNB-19 CNS, in the assay on HCT-15 colon, in the assay with HCT-116 colon and with NCI-H522 lung was over 100 µM throughout.

Turning to `COc1ccc(-c2nn(-c3cccc(Cl)c3)cc2-c2c(C#N)c(=O)n3[nH]c(-c4ccc(C)o4)nc3c2C#N)cc1`, the GI50 in the assay on HOP-62 NSCLC is 14.1 µM; in the assay with A549 NSCLC, 4.57 µM; in the assay with COLO 205 colon it was 5.47 µM; with SK-MEL-2 melanoma it was 6.57 µM; in the assay with SF-295 CNS it was 3.46 µM; in the assay with SN12C renal, 5.3 µM. Moreover, the GI50 in the assay with SNB-19 CNS was 8.63 µM; with HCT-15 colon it was 16.6 µM; in the assay on HCT-116 colon, 2.53 µM; in the assay with NCI-H522 lung, 4.96 µM. Further, the TGI with HOP-62 NSCLC was over 50 µM; in the assay on A549 NSCLC, over 50 µM; in the assay with COLO 205 colon, 11.6 µM; in the assay on SK-MEL-2 melanoma it was 18.1 µM; with SF-295 CNS, over 50 µM; with SN12C renal it was over 50 µM. For the same compound, the TGI was over 50 µM in the assay on SNB-19 CNS, over 50 µM in the assay with HCT-15 colon, 22.5 µM with HCT-116 colon and 23.1 µM in the assay with NCI-H522 lung.

In the case of `O=C1Cc2c([nH]c3ccccc23)-c2cc(Br)ccc2N1`, the TGI with HOP-62 NSCLC, in the assay with A549 NSCLC, with COLO 205 colon, with SK-MEL-2 melanoma, in the assay with SF-295 CNS and with SN12C renal was over 100 µM throughout. Moreover, the TGI in the assay on SNB-19 CNS, in the assay with HCT-15 colon, with HCT-116 colon and in the assay on NCI-H522 lung was over 100 µM in each case.

For the origin of these results see PubChem BioAssay (NCI).
